According to paper PMC12684298, “The Parkinson's Disease Drug Tolcapone and Analogues are Potent Glycomimetic Lectin Inhibitors of Pseudomonas aeruginosa LecA” (Angewandte Chemie (International Ed. in English), 2025):

What was measured:
LecA [1] = biological target: T1, LecA (Pseudomonas aeruginosa, UniProt Q05097); assay: biochemical; assay type: binding; settings: IC50, LecA inhibition, competitive binding assay (FP), tested up to 1.5 mM, n ≥ 2
T1 construct: made in house; host or cells: E. coli BL21 (DE3), plasmid pET25pa11
Protocol: Therefore, we focused our attention on commercially available nitro‐catechols. Prominent derivatives are inhibitors of the enzyme catechol‐O‐methyltransferase (COMT) and approved drugs for the treatment of Parkinson's disease. Four commercial COMT inhibitors were thus evaluated in a previously reported competitive binding assay based on fluorescence polarisation (FP, Table 1, Figure 1).^[ [32] ^]
The competitive binding assay was performed in analogy to Joachim et al.^[2] 10 µL of a solution containing LecA (40 µM) and sulfo-Cy5-Gal (20 nM, synthesis described in Kuhaudomlarp, Siebs et al.^[5]) in TBS/Ca buffer (20 mM Tris, 147 mM NaCl, 2.6 mM KCl at pH 7.4 supplemented with 1 mM CaCl2) were distributed in into wells of a black 384-well microtiter plate (Greiner Bio-One, Germany, cat no 781900). Then, 10 µL of serial dilutions of compounds (3 mM to 1.5 µM, dilution factor 0.5) in TBS/Ca with 40% DMSO were added in technical triplicates. Final concentrations after mixing were the following: 1.5 mM – 0.73 µM compound, 20 µM LecA, 10 nM sulfo-Cy5-Gal and 20% DMSO. The plate was sealed (EASYseal, Greiner Bio-One, cat no 676001), briefly centrifuged and incubated at room temperature in the dark under shaking conditions. Fluorescence intensity was measured after 1 h and 4 h using a PheraStar FS plate reader (BMG Labtech GmbH, Germany) with spectral filters for excitation at 590 nm and emission at 675 nm and polarization was calculated after blank values of 20 µM LecA in TBS/Ca buffer with 20% DMSO were subtracted from the test compounds. The data were analysed using the four-parameter variable slope model of the MARS Data Analysis software. The top and bottom plateau were assigned based on the control compound methyl α-d-galactoside and the data was reanalysed with these fixed values. If not mentioned otherwise, the experiment was repeated at least three times for each compound and the average and standard deviation are given. In case Triton X-100 was used it was added to the TBS/Ca buffer before the assay.

LecA [2] = biological target: T1, LecA; assay: Library screening using the FP competitive binding assay (three concentrations); settings: read-out: Activity [%] (% inhibition relative to 500 µM pNPGal)
Text: Next, we screened a library of catechols from F. Hoffmann‐La Roche, the developer of Tolcapone, in the competitive binding assay to establish a structure–activity relationship. To this end, two sets of compounds with a molecular cut‐off of 500 Da were chosen: a first set of 342 compounds contained derivatives of Tolcapone, while a second set of 3222 compounds comprised catechols covering a larger chemical space. […] Tests were run in a 384‐well‐plate format at three concentrations (first set at 125, 32, and 4 µM, second set at 100, 25, and 3 µM) in presence of 10% DMSO and 250 µM 2‐mercaptoethanol to prevent interference by a potential unspecific reactivity of electron‐rich catechols as established earlier.^[ [30] ^]
The screening followed the same assay by Joachim et al.^[2] as described above. Compounds in DMSO (1 µL with the appropriate concentration) were plated using a robot into black 384-well microtiter plates (Greiner Bio-One, Germany, cat no 781900) by the Roche compound handling facility at four replicates per concentration and compound. A mixture of LecA, sulfo-Cy5-Gal and 2-mercaptoethanol in TBS/Ca (20 mM Tris, 147 mM NaCl, 2.6 mM KCl at pH 7.4 supplemented with 1 mM CaCl2) with DMSO was added at HIPS. Final concentrations in both screening rounds were the following: 5 µM LecA, 250 µM 2-mercaptoethanol, 10 nM sulfo-Cy5-Gal and 10% DMSO. Final concentrations of the 342 compounds of the first screening round were 125 µM, 32 µM and 4 µM. The 3222 compounds of the second screening round were tested at final concentrations of 100 µM, 25 µM and 3 µM. The plate was sealed (EASYseal, Greiner Bio-One, cat no 676001), briefly centrifuged and incubated at room temperature in the dark under shaking conditions. Fluorescence intensities were measured after 1 h and 24 h using a PheraStar FS plate reader (BMG Labtech GmbH, Germany) with spectral filters for excitation at 590 nm and emission at 675 nm and polarization was calculated after blank values of 5 µM LecA in TBS/Ca buffer with 250 µM 2-mercaptoethanol and 10% DMSO were subtracted from the test compounds. The data were analysed using the MARS Data Analysis software. […] All stated values are the average including the standard deviation based on three replicates for 100 µM and four replicates in the case of compounds at 125 µM.

LecA [3] = biological target: T1, LecA; assay: Surface plasmon resonance (SPR) direct binding, steady-state affinity
Protocol: To confirm the affinity of Tolcapone toward LecA in an orthogonal assay, the compound was then evaluated in a direct binding experiment by surface plasmon resonance (SPR).
Using a BIACORE X100, LecA was immobilised on a CM7 chip by standard amine coupling at 25 °C as described previously.^[5] From a 200 mM solution of Tolcapone in 100% DMSO, a 10 mM solution in PBS (supplemented with 0.05% Tween20 and 100 µM CaCl2) was prepared. The final dilutions (0 – 2000 µM) were then prepared by dilution with running buffer (PBS supplemented with 0.05% Tween 20, 100 µM CaCl2 and 5% DMSO). Increasing concentrations of Tolcapone were injected onto the immobilised LecA in steady-state affinity studies (30 s association, 60 s dissociation, flow rate 30 µL/min). Data was corrected by subtraction of the reference channel (no immobilised LecA) and analysed with the BIACORE X100 evaluation software (version 2.0). The average binding affinity and standard deviation of three independent experiments is given.

[4] = one of the hydroxy groups; no reference given; cited from earlier work

T1 sequence (Q05097 whole entry): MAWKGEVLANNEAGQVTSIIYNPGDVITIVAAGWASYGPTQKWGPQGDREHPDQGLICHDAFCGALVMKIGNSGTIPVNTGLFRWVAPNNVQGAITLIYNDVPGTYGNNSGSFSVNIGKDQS

Cc1ccc(C(=O)c2cc(O)c(O)c([N+](=O)[O-])c2)cc1 [compound 4, Tolcapone]
IC50 (LecA [1]): 257 ± 40 µM
inhibition at 100 µM (LecA [2]): 43.9 ± 2.1%
Kd (LecA [3]): 181 ± 6 µM
pKa [4]: ~4.6
